Measured values reported in ChEMBL document CHEMBL1201862, “PubChem BioAssay data set” (2004).
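A five-concentration, 48-hour dose response in 96-well plates underlies each endpoint, interpolated linearly between surrounding concentrations. GI50: concentration for 50% inhibition of growth.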 Calls of active or inactive are those of the source. Rule as the data show it: active = GI50 up to about 1.1 µM and inactive = higher.

Assays:
Assay in all cases: growth of human tumour cells (NCI), 48 h
[1] = system: SK-MEL-2
[2] = system: NCI-H522
[3] = system: A498
[4] = system: NCI/ADR-RES
[5] = system: CAKI-1
[6] = system: T47D
[7] = system: Hs-578T
[8] = system: Malme-3M
[9] = system: PC-3
[10] = system: SW-620
[11] = system: SF-268
[12] = system: MCF7
[13] = system: U-251
[14] = system: OVCAR-5
[15] = system: DU-145
[16] = system: K562
[17] = system: COLO 205
[18] = system: LOX IMVI
[19] = system: 786-0

Structure (SMILES) | GI50 [1] | GI50 [2] | GI50 [3] | GI50 [4] | GI50 [5] | GI50 [6] | GI50 [7] | GI50 [8] | GI50 [9] | GI50 [10] | GI50 [11] | GI50 [12] | GI50 [13] | GI50 [14] | GI50 [15] | GI50 [16] | GI50 [17] | GI50 [18] | GI50 [19]
Cc1c2cccc(Sc3ccccc3)c2c2c3c(cccc13)[S+](c1ccccc1)C2 (centres undefined) | 1.5 µM (inactive) | 0.684 µM (active) | 2.65 µM (inactive) | 28.6 µM (inactive) | 3.19 µM (inactive) | 0.526 µM (active) | 2.74 µM (inactive) | 1.8 µM (inactive) | 2.06 µM (inactive) | 3.26 µM (inactive) | 3.13 µM (inactive) | 1.33 µM (inactive) | 1.5 µM (inactive) | 3.03 µM (inactive) | 3.78 µM (inactive) | 0.408 µM (active) | 0.923 µM (active) | 1.72 µM (inactive) | 2.98 µM (inactive)
NNC(=O)CSc1nc2ccccc2c(=O)n1N | 17.6 µM (inactive) | 58.7 µM (inactive) | > 100 µM (inactive) | > 100 µM (inactive) | 32.8 µM (inactive) | > 100 µM (inactive) | 29.7 µM (inactive) | 46.7 µM (inactive) | > 100 µM (inactive) | > 100 µM (inactive) | 39.9 µM (inactive) | 91.8 µM (inactive) | 19.1 µM (inactive) | > 100 µM (inactive) | > 100 µM (inactive) | > 100 µM (inactive) | > 100 µM (inactive) | 43.4 µM (inactive) | 19 µM (inactive)
CN1CCN(CCCCN2c3ccccc3Sc3cc(N=[N+]=[N-])ccc32)CC1 | 2.09 µM (inactive) | 1.7 µM (inactive) | 9.14 µM (inactive) | 2.59 µM (inactive) | 2.01 µM (inactive) | 9.23 µM (inactive) | 1.95 µM (inactive) | 1.71 µM (inactive) | 1.82 µM (inactive) | 1.98 µM (inactive) | 6.19 µM (inactive) | 1.99 µM (inactive) | 2.73 µM (inactive) | 12.6 µM (inactive) | 4.21 µM (inactive) | 1.38 µM (inactive) | 1.74 µM (inactive) | 1.62 µM (inactive) | 1.62 µM (inactive)
CCn1c2ccccc2n2c(=O)c3c(c(C#N)c12)CCCC3 | > 100 µM (inactive) | > 100 µM (inactive) | > 100 µM (inactive) | > 100 µM (inactive) | > 100 µM (inactive) | > 100 µM (inactive) | > 100 µM (inactive) | > 100 µM (inactive) | > 100 µM (inactive) | > 100 µM (inactive) | > 100 µM (inactive) | > 100 µM (inactive) | > 100 µM (inactive) | > 100 µM (inactive) | > 100 µM (inactive) | > 100 µM (inactive) | > 100 µM (inactive) | > 100 µM (inactive) | > 100 µM (inactive)
NC1CC2C3CCC2C1C3=O (centres undefined) | > 100 µM (inactive) | > 100 µM (inactive) | > 100 µM (inactive) | > 100 µM (inactive) | > 100 µM (inactive) | > 100 µM (inactive) | > 100 µM (inactive) | > 100 µM (inactive) | > 100 µM (inactive) | > 100 µM (inactive) | > 100 µM (inactive) | > 100 µM (inactive) | > 100 µM (inactive) | > 100 µM (inactive) | > 100 µM (inactive) | > 100 µM (inactive) | > 100 µM (inactive) | > 100 µM (inactive) | > 100 µM (inactive)
CNC1C(O)C(OC2C(N)CC(N)C(OC3OC(C(C)O)C(O)C(O)C3N)C2O)OCC1(C)O (centres undefined) | > 100 µM (inactive) | > 100 µM (inactive) | > 100 µM (inactive) | > 100 µM (inactive) | > 100 µM (inactive) | > 100 µM (inactive) | > 100 µM (inactive) | > 10 µM (inactive) | > 100 µM (inactive) | > 100 µM (inactive) | > 100 µM (inactive) | > 100 µM (inactive) | > 100 µM (inactive) | > 100 µM (inactive) | > 100 µM (inactive) | > 100 µM (inactive) | > 100 µM (inactive) | > 100 µM (inactive) | > 100 µM (inactive)
